Where no end group is shown, it is not given here.
Tests used:
[1] = system: Chlamydia-infected HeLa cells; assay: Apoptosis markers (AnnexinV staining, Caspase-3 cleavage) in infected HeLa cells; type: cell-based, C. trachomatis; details: peptide 12.5 μM at 12 hpi
Method: FIG. 11 depicts (A) that inhibiting CPAF activity induces host cell death. The indicated peptides (anti-CPAF peptide refers to SEQ ID NO:7) were added to infected cells 12 hpi and the percentage of infected cells with condensed nuclei was quantified at the indicated times. (B-C) Inhibition of CPAF activity induces apoptosis. Infected cells were treated with peptides and the percentage of AnnexinV-FITC positive (propidium iodide (PI) negative) was determined by flow cytometry (B). In parallel samples, cleavage of Caspase-3, a hallmark of apoptosome activation, was monitored by immunoblot analysis. Actin and MOMP are host and bacterial loading controls respectively. […] Infected cells were treated as in (A) in the presence or absence of ZVAD-FMK, labeled with PI and analyzed by flow cytometry. […]
(§1) Subsequent experiments tested whether CPAF inhibition led to the onset of apoptosis in infected cells. […] Apoptotic cells were identified with an AnnexinV-FLOUS Staining Kit (available from Roche) and activation of Caspase-1 was determined by labeling active Caspase-1 with a Carboxyfluorescein FLICA Detection Kit (available from Immunochemistry) and analyzed in a FACScanner (available from BD Biosciences). […] Consistent with result, Caspase-3 cleavage, another characteristic of apoptotic cell death, was not detected (FIG. 11C).

[2] = system: Caspase-1; assay: Caspase-1 activity in infected cells (FLICA, flow cytometry); type: cell-based, human; details: fluorescently labeled caspase-1 substrate
Method: FIG. 13 depicts (A) that Caspase-1 inhibitors block Chlamydia-mediated cell death. Infected cells were treated with the Caspase-1 inhibitor Ac-YVAD-CMK at 2 hpi, and increasing concentrations of CPAF inhibitor added at 12 hpi. Cells were fixed and the percentage of cells with condensed nuclei determined at 24 hpi. (B) Enhanced Caspase-1 activation in infected cells lacking CPAF activity. Infected cells were labeled with a cell-permeable fluorescent substrate of Caspase-1 and treated with inhibitory peptides, and Caspase-1 activity was monitored by flow cytometry. (C) Caspase-1 and ASC are required for Chlamydia-mediated host cell death. […] Chlamydia replication and generation of IFUs in MLFs was assessed as in FIG. 9. […]
as §1

[3] = target: CPAF (Chlamydia trachomatis serovar D, UniProt O84866); assay: FRET-based CPAF inhibition assay with model substrate SEQ ID NO:10; type: biochemical, C. trachomatis; parameters: 6xHis; made in house; host or cells: E. coli BL21 (DE3), plasmid pET30b-CPAF
CPAF, sequence (O84866 276-601): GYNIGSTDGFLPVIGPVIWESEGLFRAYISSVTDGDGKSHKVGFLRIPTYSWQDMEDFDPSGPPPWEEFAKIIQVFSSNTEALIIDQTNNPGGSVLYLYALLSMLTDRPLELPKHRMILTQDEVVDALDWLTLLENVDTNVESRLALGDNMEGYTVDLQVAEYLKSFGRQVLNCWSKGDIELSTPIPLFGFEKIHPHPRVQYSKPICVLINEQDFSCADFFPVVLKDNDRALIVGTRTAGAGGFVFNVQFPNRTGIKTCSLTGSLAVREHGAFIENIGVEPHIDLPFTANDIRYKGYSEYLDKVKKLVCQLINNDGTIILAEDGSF
CPAF, sequence (O84866 1-234, added parts left off): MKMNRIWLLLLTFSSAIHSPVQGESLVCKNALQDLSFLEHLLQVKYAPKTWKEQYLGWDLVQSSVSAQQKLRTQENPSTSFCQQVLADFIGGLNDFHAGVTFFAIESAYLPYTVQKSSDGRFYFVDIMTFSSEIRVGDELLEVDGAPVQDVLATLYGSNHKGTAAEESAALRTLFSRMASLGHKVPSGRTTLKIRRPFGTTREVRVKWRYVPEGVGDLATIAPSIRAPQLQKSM
Method: FRET-based assays comprised an Abz-tagged model CPAF substrate with an additional C-terminal 3-nitrotyrosine quencher:
The 3-nitrotyrosine moiety quenches Abz fluorescence until substrate cleavage occurs. FRET-based assays were performed in optical plates in a final volume of 100 μL containing 150 mM NaCl, 50 mM Tris pH 7.50, purified CPAF (62.5 nM), varying concentrations of model CPAF substrate (0.5 mM), and varying concentrations of each candidate compound (0-240 μM). IC50 values were determined by pre-incubating CPAF with varying concentrations of candidate compound for 5 min at room temperature prior to initiation of the reaction via the addition of model CPAF substrate. Reactions were initiated and read continuously at 420 nm for 10 minutes using a fluorescence microplate reader. The percentage of substrate converted was calculated using initial velocity over the first 90 seconds and converting RFU to concentration based on a standard curve with Abz followed by analysis in Graffit 6.0 using the equation of Example 8.

SLFYSPMVPHFWAELRNHYATSGLKRRRRRRRRR-NH2 [SEQ ID NO:7]
AnnexinV staining of infected cells [1]: did not stain for AnnexinV
Caspase-3 cleavage in infected cells ([1]; immunoblot): not detected
Caspase-1 activity in infected cells [2]: significantly increased
IC50 [3]: 30 ± 6 nM

— patent publication US8617563B2, “Antichlamydial agents” (Duke University, priority 2011, dated 2013)
